Each block holds one molecule with its values, some of them ahead of it.
What was measured:
[1] = target: Glutaminyl-peptide cyclotransferase (Homo sapiens, UniProt Q16769); test: Binding affinity to QPCT (unknown origin) assessed as inhibition constant
[2] = target: T1, Glutaminyl-peptide cyclotransferase-like protein (Homo sapiens, UniProt Q9NXS2); test: Binding affinity to QPTCL (unknown origin) assessed as inhibition constant
[3] = target: T1, Glutaminyl-peptide cyclotransferase-like protein; test: Inhibition of QPCTL (unknown origin)
[4] = target: T1, Glutaminyl-peptide cyclotransferase-like protein; test: Binding affinity to QPCTL (unknown origin) extracted from Escherichia coli BL21 (DE3) assessed as inhibition constant
[5] = target: T1, Glutaminyl-peptide cyclotransferase-like protein; test: Binding affinity to QPCTL (unknown origin) assessed as dissociation constant

T1 sequence (Q9NXS2 whole entry): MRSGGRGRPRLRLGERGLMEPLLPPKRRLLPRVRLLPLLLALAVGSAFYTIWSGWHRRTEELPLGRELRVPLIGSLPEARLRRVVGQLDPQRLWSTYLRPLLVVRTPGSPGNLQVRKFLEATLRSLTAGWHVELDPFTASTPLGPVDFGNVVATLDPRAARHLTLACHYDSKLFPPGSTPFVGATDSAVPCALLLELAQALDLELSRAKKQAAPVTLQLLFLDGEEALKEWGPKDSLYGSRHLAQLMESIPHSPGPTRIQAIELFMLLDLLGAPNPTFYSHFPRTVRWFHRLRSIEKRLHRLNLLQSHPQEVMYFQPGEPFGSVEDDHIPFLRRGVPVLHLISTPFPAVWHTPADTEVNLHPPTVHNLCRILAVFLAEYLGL
Sequence of Glutaminyl-peptide cyclotransferase (Q16769 whole entry): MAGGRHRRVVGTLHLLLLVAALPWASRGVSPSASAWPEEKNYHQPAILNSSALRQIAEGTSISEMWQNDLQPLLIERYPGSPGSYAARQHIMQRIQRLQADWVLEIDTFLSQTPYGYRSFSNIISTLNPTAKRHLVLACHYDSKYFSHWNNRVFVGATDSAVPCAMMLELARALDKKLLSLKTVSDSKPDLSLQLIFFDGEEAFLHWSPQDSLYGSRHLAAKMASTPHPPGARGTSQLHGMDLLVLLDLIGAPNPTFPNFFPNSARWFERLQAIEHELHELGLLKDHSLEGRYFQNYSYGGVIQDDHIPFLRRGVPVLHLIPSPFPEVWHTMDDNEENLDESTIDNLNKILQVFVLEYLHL

SMILES: Cc1ccc(-c2ccsc2)c(N2CCC(c3nnc(N)n3C)CC2)n1
IC50 [3]: < 1 nM

SMILES: Cn1ccnc1 [1-METHYLIMIDAZOLE]
Ki [4]: 79000 nM

SMILES: O=c1cc(-c2ccc(O)c(O)c2)oc2cc(O)cc(O)c12 [LUTEOLIN]
Kd [5]: 9400 nM

SMILES: CCCOc1ccc([C@H]2CNC(=O)N2c2ccc3[nH]cnc3c2)cc1 [VAROGLUTAMSTAT]
Ki [2]: 5 nM

Next, values leading:

Ki [1]: < 100 nM
Ki [2]: < 25 nM
SMILES: CCCOc1ccc(C2c3c(nn(C)c3C)C(=O)N2c2ccc3[nH]cnc3c2)c(F)c1 (configuration not stated)

Ki [2]: < 2 nM
SMILES: O=C1[C@H](O)[C@H](c2c(F)cc(-c3cnn(C(F)F)c3)cc2F)N1c1ccc2[nH]cnc2c1

From ChEMBL document CHEMBL6096678, “Targeting QPCTL: An Emerging Therapeutic Opportunity” (J Med Chem, 2025)
